Each compound was assayed against KRasG12C (M1-K169, biotinylated on the N-terminus) (Homo sapiens (Human), UniProt P01116, G12C) (assay: Covalent competition assay: scintillation proximity assay (SPA) quantifying covalent modification of KRASG12C). Conditions: competition with radiolabeled covalent probe (Compound B/Compound A), 2 hours incubation, 10 nM KRasG12C.
Type: binding
In short: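 Test compounds compete with a radiolabeled covalent probe for modification of N-terminally biotinylated KRasG12C(M1-K169):GDP, final 10 nM protein, 25 nM radio-ligand, 475 nM unlabelled ligand, 2 h with agitation in 20 mM Tris-HCl pH 7.5, 150 mM NaCl, 0.1 mM MgCl2, 0.01% Tween-20.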

Row | SMILES | IC50
1 | C=CC(=O)N1CC2(CC(n3nc(N4CCN(C5CCOCC5)C[C@@]4(C)C(F)F)c(-c4c(Cl)c(Cl)cc5[nH]ncc45)c3C)C2)C1 (single isomer, unassigned) [Example 106a] | > 5000 nM
2 | C=CC(=O)N1CC2(CC(n3nc(N4CC[C@@H](CN5CC6(CCCN6C(C)=O)C5)CC4(C)C)c(-c4c(Cl)c(Cl)cc5[nH]ncc45)c3C)C2)C1 (single isomer, unassigned) [Example 285a] | 4600 nM
3 | [2H]C1([2H])OC([2H])([2H])C([2H])([2H])N(C[C@@H]2CCN(c3nn(C4CC5(C4)CN(C(=O)C=C)C5)c(C)c3-c3c(Cl)c(Cl)cc4[nH]ncc34)C(C)(C)C2)C1([2H])[2H] (single isomer, unassigned) [Example 283a] | 3000 nM
4 | C=CC(=O)N1CC2(CC(n3nc(N4CCN(C5CCOCC5)C[C@@]4(C)C(F)F)c(-c4c(Cl)c(C)cc5[nH]ncc45)c3C)C2)C1 (single isomer, unassigned) [Example 146a] | > 5000 nM
5 | C=CC(=O)N1CC2(CC(n3nc(N4CCC(O)CC4(C)C)c(-c4c(Cl)c(C)cc5[nH]ncc45)c3C)C2)C1 (single isomer, unassigned) [Example 30a, 1-(6-(4-(5-chloro-6-methyl-1H-indazol-4-yl)-3-(4-hydroxy-2,2-dimethylpiperidin-1-yl)-5-methyl-1H-pyrazol-1-yl)-2-azaspiro[3.3]heptan-2-yl)prop-2-en-1-one] | 514 nM
6 | C=CC(=O)N1CC2(CC(n3nc(N4CCc5c(cnn5C)C4)c(-c4c(Cl)c(C)cc5[nH]ncc45)c3C)C2)C1 (single isomer, unassigned) [Example 11a, 1-(6-(4-(5-chloro-6-methyl-1H-indazol-4-yl)-5-methyl-3-(1-methyl-1,4,6,7-tetrahydro-5H-pyrazolo[4,3-c]pyridin-5-yl)-1H-pyrazol-1-yl)-2-azaspiro[3.3]heptan-2-yl)prop-2-en-1-one] | > 50000 nM
7 | C=CC(=O)N1CC2(CC(n3nc(N4CCN(CC(C)(C)O)CC45CCCC5)c(-c4c(Cl)c(C)cc5[nH]ncc45)c3C)C2)C1 (single isomer, unassigned) [Example 165a, 1-(6-(4-(5-chloro-6-methyl-1H-indazol-4-yl)-3-(9-(2-hydroxy-2-methylpropyl)-6,9-diazaspiro[4.5]decan-6-yl)-5-methyl-1H-pyrazol-1-yl)-2-azaspiro[3.3]heptan-2-yl)prop-2-en-1-one] | > 5000 nM
8 | C=CC(=O)N1CC2(CC(n3nc(N4CCN(C(C)=O)CC4(C)C)c(-c4c(C)c(C)cc5[nH]ncc45)c3C)C2)C1 (single isomer, unassigned) [Example 1b, 1-(6-(3-(4-Acetyl-2,2-dimethylpiperazin-1-yl)-4-(5,6-dimethyl-1H-indazol-4-yl)-5-methyl-1H-pyrazol-1-yl)-2-azaspiro[3.3]heptan-2-yl)prop-2-en-1-one] | 10700 nM
9 | C=CC(=O)N1CC2(CC(n3nc(N4CC[C@@H](CN5CCN(S(C)(=O)=O)CC5)CC4(C)C)c(-c4c(Cl)c(Cl)cc5[nH]ncc45)c3C)C2)C1 (single isomer, unassigned) [Example 298a] | 1000 nM
10 | C=CC(=O)N1CC2(CC(n3nc(N4CCN(C5COCCOC5)C[C@]4(C)CC)c(-c4c(Cl)c(C)cc5[nH]ncc45)c3C)C2)C1 (single isomer, unassigned) [Example 159a] | 715 nM
11 | C=CC(=O)N1CC2(CC(n3nc(N4CCN(c5cnn(C)c5)CC4(C)C)c(-c4c(Cl)c(C)cc5[nH]ncc45)c3C)C2)C1 (single isomer, unassigned) [Example 193b, 1-(6-(4-(5-Chloro-6-methyl-1H-indazol-4-yl)-3-(2,2-dimethyl-4-(1-methyl-1H-pyrazol-4-yl)piperazin-1-yl)-5-methyl-1H-pyrazol-1-yl)-2-azaspiro[3.3]heptan-2-yl)prop-2-en-1-one] | 28 nM
12 | C=CC(=O)N1CC2(CC(n3nc(N4C[C@H](C)N(C5COC5)CC4(C)C)c(-c4c(Cl)c(Cl)cc5[nH]ncc45)c3C)C2)C1 (single isomer, unassigned) [Example 104a] | 4440 nM
13 | C=CC(=O)N1CC2(CC(n3nc(N4CCC5(CN(C6COC6)C5)CC4(C)C)c(-c4c(Cl)c(Cl)cc5[nH]ncc45)c3C)C2)C1 (single isomer, unassigned) [Example 92a, 1-(6-(4-(5,6-dichloro-1H-indazol-4-yl)-3-(6,6-dimethyl-2-(oxetan-3-yl)-2,7-diazaspiro[3.5]nonan-7-yl)-5-methyl-1H-pyrazol-1-yl)-2-azaspiro[3.3]heptan-2-yl)prop-2-en-1-one] | 2100 nM
14 | C=CC(=O)N1CC2(CC(n3nc(N4CC[C@@H](CN5CCN(C6COC6)CC5)CC4(C)C)c(-c4c(Cl)ccc5[nH]ncc45)c3C)C2)C1 (single isomer, unassigned) [Example 255a] | 3300 nM
15 | CC#CC(=O)N1CC2(CC(n3nc(N4CCN(C5COC5)CC45CCC5)c(-c4c(Cl)c(C)cc5[nH]ncc45)c3C)C2)C1 (single isomer, unassigned) [Example 78a, 1-(6-(4-(5-chloro-6-methyl-1H-indazol-4-yl)-5-methyl-3-(8-(oxetan-3-yl)-5,8-diazaspiro[3.5]nonan-5-yl)-1H-pyrazol-1-yl)-2-azaspiro[3.3]heptan-2-yl)but-2-yn-1-one] | 1300 nM
16 | C=CC(=O)N1CC2(CC(n3nc(N4CC[C@@H](CN5CC6CCC(C5)O6)CC4(C)C)c(-c4c(Cl)c(Cl)cc5[nH]ncc45)c3C)C2)C1 (single isomer, unassigned) [Example 314a] | 2100 nM
17 | C=CC(=O)N1CC2(CC(n3nc(N4[C@H](C)CN(C(C)=O)C[C@@H]4C)c(-c4c(Cl)c(C)cc5[nH]ncc45)c3C)C2)C1 (single isomer, unassigned) [Example 13a] | > 50000 nM
18 | C=CC(=O)N1CC2(CC(n3nc(N4CCN(C(C)=O)C[C@@H]4C(C)C)c(-c4c(Cl)c(C)cc5[nH]ncc45)c3C)C2)C1 (single isomer, unassigned) [Example 95b] | 373 nM
19 | C=CC(=O)N1CC2(CC(n3nc(N4CCN(C5COC5)CC4(C)C)c(-c4c(Cl)c(C)cc5[nH]ncc45)c3C)C2)C1 (single isomer, unassigned) [Example 67b, 1-(6-(4-(5-chloro-6-methyl-1H-indazol-4-yl)-3-(2,2-dimethyl-4-(oxetan-3-yl)piperazin-1-yl)-5-methyl-1H-pyrazol-1-yl)-2-azaspiro[3.3]heptan-2-yl)prop-2-en-1-one] | 38 nM
20 | C=CC(=O)N1CC2(CC(n3nc(N4CCn5ccnc5C4)c(-c4c(Cl)c(C)cc5[nH]ncc45)c3C)C2)C1 (single isomer, unassigned) [Example 19b, 1-(6-(4-(5-chloro-6-methyl-1H-indazol-4-yl)-3-(5,6-dihydroimidazo[1,2-a]pyrazin-7(8H)-yl)-5-methyl-1H-pyrazol-1-yl)-2-azaspiro[3.3]heptan-2-yl)prop-2-en-1-one] | 34700 nM

Now those with a lower IC50, led by results:

Row | IC50 | SMILES
21 | 13 nM | C=CC(=O)N1CC2(CC(n3nc(N4CCC5(CN(C6COC6)C5)CC4(C)C)c(-c4c(Cl)c(C)cc5[nH]ncc45)c3C)C2)C1 (single isomer, unassigned) [Example 91b, 1-(6-(4-(5-chloro-6-methyl-1H-indazol-4-yl)-3-(6,6-dimethyl-2-(oxetan-3-yl)-2,7-diazaspiro[3.5]nonan-7-yl)-5-methyl-1H-pyrazol-1-yl)-2-azaspiro[3.3]heptan-2-yl)prop-2-en-1-one]
22 | 17 nM | C=CC(=O)N1CC2(CC(n3nc(N4CCN(C(C)=O)CC45CCC5)c(-c4c(Cl)c(C)cc5[nH]ncc45)c3C)C2)C1 (single isomer, unassigned) [Example 21b, 1-(6-(3-(8-acetyl-5,8-diazaspiro[3.5]nonan-5-yl)-4-(5-chloro-6-methyl-1H-indazol-4-yl)-5-methyl-1H-pyrazol-1-yl)-2-azaspiro[3.3]heptan-2-yl)prop-2-en-1-one]
23 | < 5 nM | C=CC(=O)N1CC2(CC(n3nc(N4CCN(C5CCOCC5)C[C@]4(C)COC)c(-c4c(Cl)c(Cl)cc5[nH]ncc45)c3C)C2)C1 (single isomer, unassigned) [Example 150b]
24 | 6 nM | C=CC(=O)N1CC2(CC(n3nc(N4CC[C@@H](CN5CCN(C6COC6)CC5)CC4(C)C)c(-c4c(Cl)c(Cl)cc5[nH]ncc45)c3C)C2)C1 (single isomer, unassigned) [Example 243b]
25 | 5 nM | C=CC(=O)N1CC2(CC(n3nc(N4CCC(N(C)C5COC5)CC4(C)C)c(-c4c(Cl)c(Cl)cc5[nH]ncc45)c3C)C2)C1 (single isomer, unassigned) [Example 50b, 1-(6-(4-(5,6-dichloro-1H-indazol-4-yl)-3-(2,2-dimethyl-4-(methyl(oxetan-3-yl)amino)piperidin-1-yl)-5-methyl-1H-pyrazol-1-yl)-2-azaspiro[3.3]heptan-2-yl)prop-2-en-1-one]
26 | 12 nM | C=CC(=O)N1CC2(CC(n3nc(N4CCN(C5CCOCC5)CC45CCC5)c(-c4c(Cl)c(Cl)cc5[nH]ncc45)c3C)C2)C1 (single isomer, unassigned) [Example 145b, 1-(6-(4-(5,6-dichloro-1H-indazol-4-yl)-5-methyl-3-(8-(tetrahydro-2H-pyran-4-yl)-5,8-diazaspiro[3.5]nonan-5-yl)-1H-pyrazol-1-yl)-2-azaspiro[3.3]heptan-2-yl)prop-2-en-1-one]
27 | 8 nM | C=CC(=O)N1CC2(CC(n3nc(N4CCN(C5CCOCC5)C[C@@]4(CC)C(F)F)c(-c4c(Cl)c(C)cc5[nH]ncc45)c3C)C2)C1 (single isomer, unassigned) [Example 156b]
28 | 10 nM | C=CC(=O)N1CC2(CC(n3nc(N4CC[C@@H](CN5CC6(O)CC5C6)CC4(C)C)c(-c4c(Cl)c(Cl)cc5[nH]ncc45)c3C)C2)C1 (single isomer, unassigned) [Example 293b]
29 | 12 nM | C=CC(=O)N1CC2(CC(n3nc(N4CCC(N5C[C@H]6C[C@@H]5CN6S(C)(=O)=O)CC4(C)C)c(-c4c(Cl)c(Cl)cc5[nH]ncc45)c3C)C2)C1 (single isomer, unassigned) [Example 212b]

Source: US20240317721A1, “PYRAZOLYL DERIVATIVES AS INHIBITORS OF THE KRAS MUTANT PROTEIN” (NOVARTIS AG, priority 2021, published 2024)
